4 compounds from patent US11028051B2, “Tetrahydroquinoline-based bromodomain inhibitors” (St. Jude Children's Research Hospital, priority 2016, dated 2021) can be followed below.

Where two headings read alike, the source gives them in different places.

One test has as its target BRD4-BD2 (Homo sapiens (Human), UniProt O60885). Briefly: competitive TR-FRET assay, BET-BD with acetylated peptide ligand. Format: binding. As for the experimental part:
(§1) Inhibitor potency was determined using a competitive TR-FRET assay as detailed herein, measuring interaction of the respective BET-BD with an acetylated peptide ligand (Table 2).

The target in another test is BRD4-BD1 (Homo sapiens (Human), UniProt O60885). Described as above. It counts as binding. The protocol: as §1
In test [1] the test system is c-Myc expression in HDMB03 cells. Briefly: c-Myc expression inhibition, high content microscopy (HCM). It counts as cell-based, human. The settings on record: Homo sapiens.
Description: 3000 human G3 medulloblastoma or 2000 mouse SHH medulloblastoma cells per well were plated into 384-well plates (6007710, Perkin Elmer) in 30 μL of supplemented neurobasal medium using a Wellmate automated dispenser (Thermo Matrix). After 24 hours, 125 nl of compound was transferred via pin tool, resulting in a final drug concentration from 2 nM to 40 μM. 72 hours after adding the drug, the plates were fixed with 4% formaldehyde for 20 min. After fixation the cells were then washed 3 times with 75 μl of PBS. The cells were then permeabilized with 0.1% Triton-X 100 for 15 minutes at 25° C. and blocked using 1% BSA in PBS for 1 hour at 25° C. The primary antibody against c-Myc Ab (#9402, Cell Signaling) at a 1:400 dilution was diluted in 1% BSA in PBS. This mixture was added to each well before incubation overnight at 4° C. Each well was then washed 3 times with PBS using a Biotek ELX405 Select plate washer, and incubated for 1 hour at 25° C. with a solution containing 1/400 goat α-rabbit-Alexa-488 (4412S, Cell Signaling) and 1 μM Hoechst 33342 to detect nuclear material (H3570, Molecular Probes). Two images were captured of each well at 10× using a GE Healthcare InCell 6000 at 405 nM to detect nuclear staining and 488 nM to detect c-Myc. All data were analyzed using the multi-target analysis algorithm of the GE InCell Analyzer Workstation software. The number of nuclear objects in each well, as well as all nuclear measurements, was determined through nuclear masks over the Hoechst staining. C-Myc staining was then measured using top-hat segmentation in the entire cell.
Test [2] concerns the target T1, BRD2-BD1 (Homo sapiens (Human), UniProt P25440). Briefly: isothermal titration calorimetry analysis of binding. Particulars: ITC, BRD2-BD1. As for the experimental part: b. Isothermal Titration Calorimetry Analysis of Binding to Brd2-BD1 and Brd2-BD2
Binding of compounds to BRD2 was monitored using an ITC200 (Microcal, Piscataway, N.J.). Either Brd2.1 (74-194) or Brd2.2 (348-455) was dialyzed overnight into a solution containing 50 mM HEPES, pH 7.0 and 150 mM NaCl at 15° C. Enzyme concentrations were determined after dialysis by absorbance at 280 nm using a molar extinction coefficient (ε280) of 25,565 M^−1 cm^−1 (2.1) or 16,055 M^−1 cm^−1 (2.2). Enzyme was diluted in dialysis buffer and 39.6 μL was loaded into the syringe. Compounds were dissolved in the same dialysis buffer and loaded in the cell to a volume of 204 μL. Injections were carried out by serial injections of enzyme; first, 1 injection of 1 μL, followed by 19 incremental injections of 2 μL, at 120 second intervals. Data from the first injection was excluded, due to pre-equilibration mixing between the contents of cell and syringe at the syringe tip. Peak areas were integrated, normalized, and then fitted by non-linear regression using the independent sites model in Origin™ (version 2.3.6, Microcal, Piscataway, N.J.).
Target sequence in this assay (P25440 74-194): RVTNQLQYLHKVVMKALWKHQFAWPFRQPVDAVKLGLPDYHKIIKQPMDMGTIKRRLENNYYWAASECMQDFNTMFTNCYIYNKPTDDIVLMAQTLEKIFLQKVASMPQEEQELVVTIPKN

The target of a further test is BRD2-BD2 (Homo sapiens (Human), UniProt P25440). The test is described as follows: competitive TR-FRET assay, BET-BD with acetylated peptide ligand. Format: binding. The settings on record: for [2(1)/2(2)]: Table 4, ratio of EC50. As for the experimental part: as §1
BRD2-BD2, sequence (P25440 344-453): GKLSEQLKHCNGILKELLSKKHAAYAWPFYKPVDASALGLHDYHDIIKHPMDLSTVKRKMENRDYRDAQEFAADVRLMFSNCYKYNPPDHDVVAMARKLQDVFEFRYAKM
The target in the next test is BRD3-BD1 (Homo sapiens (Human), UniProt Q15059). The test is described as above. It counts as binding. As for the experimental part:
as §1

A further test has as its target BRDT (Homo sapiens, UniProt Q58F21). Described as above. It counts as binding. The settings on record: read-out: BRDT EC50. As for the experimental part: as §1
Test [3] concerns the target T1, BRD2-BD1. Described as above. It counts as binding. As for the experimental part:
as §1
Target sequence in this assay (P25440 74-180): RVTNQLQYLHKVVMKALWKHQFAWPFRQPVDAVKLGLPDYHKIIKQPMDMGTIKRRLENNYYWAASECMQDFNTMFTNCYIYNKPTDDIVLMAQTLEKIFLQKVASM

In the next test the test system is HDMB03 cells. Briefly: cell viability, CellTiter-Glo. Format: cell-based, human. The settings on record: Homo sapiens, HD-MB03, Table 5; read-out: EC50 (μM) HDMB03. The protocol:
Human G3 medulloblastoma or mouse SHH medulloblastoma cells were grown as neurospheres in supplemented neurobasal medium, as previously described (Kawauchi et al., 2012.)
After 7 days of treatment, an equal volume of CellTiter-Glo reagent (G7572, Promega) was added and the luminescence signal was measured using an automated Envision plate reader (Perkin-Elmer). Luminescence data were normalized by log10 transformation prior to calculating the percent inhibition using the following equation:
100*(negative control mean −compound value)/(negative control mean −positive control mean).
High-throughput assay data were analyzed using Robust Interpretation of Screening Experiments (RISE) application written in Pipeline Pilot (Accelrys, v. 8.5) and the R program (R Development Core Team).
Dose-response curves were calculated by regressing the median percent inhibition obtained over triplicate experiments to log 10-transformed concentrations. Non-linear regression was then performed using the R drc package with the four parameter log-logistic function (LL2.4) (Ritz and Streibig, 2009). Curves were fit under three different constraints: (1) all parameters free, (2) high response fixed to 100, (3) low response fixed to 0; and the best fit from these three nested models was selected using the anova.drc function.

The target of a further test is BRD3(2) (Homo sapiens (Human), UniProt Q15059). Briefly: BROMOscan KD determination. It counts as binding. The settings on record: for 3(1)/3(2): BROMOscan KD ratio; for Kd: BROMOscan, Table 10. The text has this: (§2) DiscoverX® can screen compounds against all ˜42 bromodomains (a service called BROMOscan) and perform follow-up KD determination. This service is considered the industrial standard for bromodomain inhibitor comparisons.
BRD3(2), sequence (Q15059 306-415): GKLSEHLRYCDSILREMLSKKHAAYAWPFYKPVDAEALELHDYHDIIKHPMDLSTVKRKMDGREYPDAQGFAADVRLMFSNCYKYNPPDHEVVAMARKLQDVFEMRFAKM

In the next test the target is BRD3(1) (Homo sapiens (Human), UniProt Q15059). The test is described as follows: BROMOscan KD determination. Format: binding. Particulars: Table 10.
BRD3(1), sequence (Q15059 34-140): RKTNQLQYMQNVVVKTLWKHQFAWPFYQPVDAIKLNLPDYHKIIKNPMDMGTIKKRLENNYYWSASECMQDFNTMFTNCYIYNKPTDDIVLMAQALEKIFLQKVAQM
Description: as §2

A further test addresses BRD4(2) (Homo sapiens (Human), UniProt O60885). The test is described as follows: BROMOscan KD determination. Format: binding. Particulars: for 4(1)/4(2): BROMOscan KD ratio; for Kd: BROMOscan, Table 10.
Description: as §2

A further test deals with BRD4(1) (Homo sapiens (Human), UniProt O60885). The test is described as follows: BROMOscan KD determination. Format: binding. The settings on record: Table 10.
Description: as §2

The next test concerns the target BRD2(1) (Homo sapiens (Human), UniProt P25440). The test is described as follows: BROMOscan KD determination. Format: binding. The settings on record: Table 10. The text has this:
(§3) DiscoverX® can screen compounds against all ˜42 bromodomains (a service called BROMOscan) and perform follow-up KD determination. This service is considered the industrial standard for bromodomain inhibitor comparisons. […] Dots are symbolic of inhibition of the compound at this concentration; the larger the size of the dot, the greater the activity of the compound. […] Though these compounds are selective for the BET family, the selectivity within the BET family is poor. The results of a competitive binding experiment between compounds 19 (left), 41 (center), and 56 (right) (at a single concentration, 1 μM) and a control for each of the bromodomains are shown in FIG. 5.

Another test concerns the target BRDT(1) (Homo sapiens (Human), UniProt Q58F21). The test is described as follows: BROMOscan KD determination. It counts as binding. Particulars: Table 10.
Description: as §3

A further test concerns the target BRDT(2) (Homo sapiens (Human), UniProt Q58F21). The test is described as follows: BROMOscan KD determination. Format: binding. Particulars: for T(1)/T(2): BROMOscan KD ratio; for Kd: BROMOscan, Table 10.
Description: as §3

For another test, the target named is BRD2(2) (Homo sapiens (Human), UniProt P25440). Briefly: BROMOscan KD determination. It counts as binding. The settings on record: for [2(1)/2(2)]: BROMOscan KD ratio; for Kd: BROMOscan, Table 10.
BRD2(2), sequence (P25440 344-453): as the sequence (P25440 344-453) above
Description: as §3

Setting [4] is: Table 2, inhibitor potency by TR-FRET.
The mark [5] stands for this setting: Table 4, read-out: EC50 (μM) BRD2(2).
Where [6] appears, read: Table 4, read-out: EC50 (μM) BRD2(1).
Setting [7] is: HD-MB03, Table 5, read-out: EC50 (μM) Myc-inhibition.

BRD3-BD1, sequence (Q15059 34-140): as the sequence (Q15059 34-140) above
BRD2(1), sequence (P25440 74-180): as the sequence (P25440 74-180) above

In the case of `CC(=O)N1c2ccc(-c3ccco3)cc2[C@H](NC(=O)OC(C)C)C[C@@H]1C` [compound 50], the IC50 at BRD4-BD2 (setting [4]) was 2600 nM. At BRD4-BD1 (setting [4]), this compound came in with a half-maximal inhibitory concentration (IC50) of 4600 nM. For the same compound, the EC50 in [1] (HD-MB03, HDMB03 cells, read-out: c-Myc expression EC50) was determined as 0.33 µM. For the same compound, at BRD2-BD1 [2], the “ΔG” value was -7.47 kcal/mol and the “−TΔS” value was -0.20 kcal/mol.
Consider `CC(=O)Nc1cccc(-c2ccc3c(c2)[C@H](Nc2ccccc2C(F)(F)F)C[C@H](C)N3C(C)=O)c1` [compound 41], for which the figures for the “[2(1)/2(2)]” value on BRD2-BD2 and at BRD2(2) were 57 and 49.4, respectively. Moreover, the EC50 on BRD2-BD2 (setting [5]) was 0.35 µM; at BRD3-BD1 (Table 4, read-out: BRD3(1)), 20000 nM; at BRDT (Table 4), 53000 nM; at BRD2-BD1 [3] (setting [6]), 70 µM; in test [1] (setting [7]), 6.2 µM; with HDMB03 cells, 1.6 µM. Also, on BRD3(2), the “3(1)/3(2)” value turned out to be 138.9. For the same compound, the Kd on BRD3(2) stood at 3.6 nM; at BRD3(1), 500 nM; at BRD4(2), 6.4 nM; on BRD4(1) it was 410 nM; on BRD2(1) it was 790 nM; on BRDT(1), 290 nM. Besides, the results for the dissociation constant Kd at BRDT(2) and at BRD2(2) were 31 nM and 16 nM, respectively. Further, the “4(1)/4(2)” value at BRD4(2) turned out to be 64.1. Moreover, the “T(1)/T(2)” value on BRDT(2) is listed as 9.4.
For `CC(=O)Nc1cccc(-c2ccc3c(c2)[C@H](Nc2ccc4ncccc4c2)C[C@H](C)N3C(C)=O)c1` [compound 13], the EC50 at BRD2-BD2 (BRD2-BD2, Table 11 additional modifications, read-out: 2.2 EC50) stood at 59 µM; on BRD3-BD1 (BRD3-BD1, Table 11 additional modifications, read-out: 3.1 EC50) it was 1100 nM; at BRDT (BRDT, Table 11 additional modifications) it was 2500 nM; at BRD2-BD1 [3] (BRD2-BD1, Table 11 additional modifications, read-out: 2.1 EC50), 0.88 µM; on BRD4-BD2 (BRD4-BD2, Table 11 additional modifications, read-out: 4.2 EC50) it was 60000 nM; at BRD4-BD1 (BRD4-BD1, Table 11 additional modifications, read-out: 4.1 EC50), 1300 nM. In addition, at BRD2-BD2 (ratio of BRD2-BD1 EC50 to BRD2-BD2 EC50 (selectivity)), the 2.1/2.2 is given as 0.015. In addition, at BRD3(2), the “3(1)/3(2)” value is reported as 28.2. In addition, the Kd at BRD3(2) came to 0.78 nM; on BRD3(1), 22 nM; on BRD4(2), 1.3 nM; at BRD4(1), 17 nM; on BRD2(1), 28 nM; on BRDT(1), 20 nM. In addition, the results for the Kd on BRDT(2) and on BRD2(2) were 6.9 nM and 2 nM, respectively. For the same compound, the “4(1)/4(2)” value on BRD4(2) was 13.1. Besides, the “T(1)/T(2)” value on BRDT(2) is 2.9. Also, the “[2(1)/2(2)]” value on BRD2(2) turned out to be 14.0.
For `COc1cc(F)ccc1N[C@@H]1C[C@H](C)N(C(C)=O)c2ccc(-c3cccc(NC(C)=O)c3)cc21` [compound 42], the “[2(1)/2(2)]” value at BRD2-BD2 is on record as >100. The EC50 at BRD2-BD2 (setting [5]) was 0.14 µM; on BRD3-BD1 (Table 4, read-out: BRD3(1)), > 14000 nM; at BRDT (Table 4), > 14000 nM; at BRD2-BD1 [3] (setting [6]), 13 µM; in [1] (setting [7]), > 10 µM; with HDMB03 cells it was 0.76 µM.
